The text below walks through data of patent US8642357B2, “Semaphorin 7A plays a critical role in TGF-β1-induced pulmonary fibrosis and alveolar destruction” (Yale University, priority 2009, dated 2014).

For the data set, the system named is C57BL/6 female mice. The data set can be described thus: Bleomycin-induced pulmonary fibrosis and collagen accumulation. The format is in vivo. Conditions: 0.075 Unit/mouse intratracheal; most impressive 3 weeks after administration. The protocol:
Animals were anesthetized, a median sternotomy was performed, and right heart perfusion was accomplished with calcium and magnesium-free phosphate-buffered saline (PBS). The heart and lungs were then removed en bloc. The right lung was frozen in liquid nitrogen and stored at −80° C. until used. Collagen content was determined by quantifying total soluble collagen using the Sircol Collagen Assay kit (Biocolor) according to the manufacturer's instructions. The data is expressed as the collagen content of the entire right lung.
The lungs were removed en bloc as described above, inflated at 25 cm pressure with PBS containing 0.5% low melting point agarose gel, fixed, embedded in paraffin, sectioned and stained. Hematoxylin and eosin, and Mallory's trichrome stains were performed in the Research Histology Laboratory of the Department of Pathology at the Yale University School of Medicine.
Bleomycin (0.075 Unit/mouse) or vehicle control were administered to C57BL/6 female mice as previously described by Jiang et al. (2004, J Clin Invest. 114:291-299).
Studies were also undertaken to determine if the biology of SEMA 7A that was defined using the Tg modeling system was also relevant to fibrotic responses that were induced by other stimuli. […]

For the substance Bleomycin, the “Pulmonary fibrosis and collagen accumulation” value is given as “significant increase”.
